US7232837B2, “Stereoisomers with high affinity for adrenergic receptors” (McNeil-PPC, Inc., priority 1999, dated 2007)
Counter-ions that a name gives are not always drawn. Like-named read-outs stand apart in the source and are kept apart here.

Experiments:
Swiss-Webster mice [1] = assay: Locomotor stimulant and depressant effects in mice; settings: i.p.; for Depression Efficacy: ratio of the maximal depressant effect to the maximum possible effect (zero locomotor activity) / Stimulation Efficacy: ratio of the maximal stimulant effect of the test compound to the maximal effect of (+)-amphetamine: locomotor activity
Method: Male Swiss-Webster mice (HSD ND4, Harlan Sprague Dawley, Houston, Tex.) aged 2–3 months were used in these studies. Each dose group consisted of 8 mice. The mice were housed 2 to 4 per cage in 30.4×22.9×15.2 cm clear polycarbonate cages with food and water available ad libitum for at least one week prior to locomotor activity testing. The colony was maintained at 23±1° C., on a normal light-dark cycle beginning at 0700 hr. All testing took place during the light portion of the light-dark cycle.
Horizontal (forward movement) locomotor activity was measured using a standardized, optical activity monitoring system [Model KXYZCM (16), Omnitech Electronics, Columbus, Ohio]. Activity was monitored in forty 40.5×40.5×30.5 cm clear acrylic chambers that where housed in sets of two within larger sound-attenuating chambers. A panel of 16 infrared beams and corresponding photodetectors were spaced 2 cm apart along the sides and 2.4 cm above the floor of each activity chamber. A 7.5-W incandescent light above each chamber provided dim illumination via a rheostat set to 20% of full scale. Fans provided an 80-dB ambient noise level within the chamber.
Triprolidine HCl was obtained from Research Biochemicals International, (Natick, Mass.).
Locomotor stimulant effects. […] (+)-Amphetamine was used as a positive control. The total horizontal distance traversed (cm) was recorded at 10 minute intervals for a 2-hour session. Separate groups of 8 mice were assigned to each dose or saline group, and dose-effect testing continued for each compound until maximal stimulant or depressant effects could be estimated. A separate control group was tested along with each compound.
Using TableCurve 2D v2.03 (Jandel Scientific), the mean average total distance traversed (cm/10 min) for that period was fit to a 3-parameter logistic peak function of log10 dose (with the constant set to the mean of the saline group), and the maximum effect estimated from the resulting curve. The […] (dose producing ½ maximal stimulant activity) was estimated from a linear regression against log10 dose of the ascending portion of the dose-effect curve. The stimulant efficacy was the peak effect of the compound (cm/10 min) as estimated from the logistic peak function, minus the mean control distance traveled (cm/10 min), and was expressed for each stimulant compound as a ratio to the stimulant efficacy determined for (+)-amphetamine.
The mean average total distance traversed (cm/10 min) for that period were fit to a linear function of log10 dose of the descending portion of the dose-effect curve. […] Efficacy was the ratio of maximal depressant effect to maximum possible depression for each compound (mean average total distance of the control group minus the lowest mean total distance, expressed as a ratio to the control group total distance).
(§1) Statistical analysis. Time course data for each compound were considered in 2-way analyses of variance with dose as a between-group and time as a within-group factor. The dose-effect data were considered in 1-way analyses of variance, and planned individual comparisons were conduced between each dose and the saline control group. Interaction studies were considered in 2-way analyses of variance, with Pretreatment and Test dose as the factors.

Swiss-Webster mice [2] = assay: H1 receptor antagonist (triprolidine) interaction study, locomotor activity in mice; settings: for effect of triprolidine pretreatment on stimulant or depressant effects: mice pretreated with triprolidine 20 min before the test compound
Method: H1 receptor antagonist interaction studies. […] The mice were immediately placed in the activity testing chamber for a 2-h session. Doses of the test compound were selected from the ascending or descending time of the dose-effect curve determined from the compound-alone studies. Eight mice were tested for each triprolidine/test compound combination.
as §1

β2 adrenergic receptors = biological target: T1, β2 adrenergic receptors (Canis lupus familiaris, UniProt P54833); assay: Beta-2 binding, 125iodocyanopindolol (ICYP), canine lung membranes; design: species or system canine (mongrel dogs)
T1 construct: Canine lung membranes (10 μg protein/100 ul) were incubated with ^125ICYP; from tissue; host or cells: mongrel dog lung membranes
Method: PULMONARY ALPHA-1 AND BETA-2 RECEPTORS: The lungs of mongrel dogs were separated from cartilaginous airways and major blood vessels, weighed, chopped and placed into 10 volumes of ice-cold buffered sucrose (50 mM Tris-HCl pH 7.4, 1 mM EGTA, 0.32M Sucrose). The tissue was then homogenized in a Polytron tissue homogenizer. The homogenate was filtered through two layers of cheesecloth, and the filtrate was dounced three times using a Con-Turque Potter homogenizer. […] The supernatant was recentrifuged at 30,000×g for 30 min at 4° C. and the resulting pellet was washed and resuspended in 10 volumes of Tris buffer (50 mM Tris HCl, pH 7.4, 1 mM EGTA) and incubated at 37° C. for 30 min in a shaking water bath. The suspension was centrifuged at 4° C. at 30,000×g for 30 min and the resulting pellet washed in 10 volumes of Tris buffer. […] Protein concentration was then determined by the Lowry method and the final suspension was adjusted to 10 mg of protein/ml, aliquoted and stored at […].
Particulates were also prepared for β2 receptors using the identical procedure except the final protein concentration was adjusted to 0.1 mg/ml.
(§2) ALPHA-2 BINDING ^125IODOCLONIDINE. […] Nonspecific binding was determined in separate incubations in the presence of 10 μM phentolamine. The final concentration of p-iodoclonidine was 44–45 pM in competition studies and between 50 pM and 10 nM in saturation experiments. Bound and free p-^125iodoclonidine were separated and the bound quantified as described above for the ICYP assays. […] BETA-2 BINDING, ^125IODOCYANOPINDOLOL (^125ICYP). […] Nonspecific binding was determined in separate incubations in the presence of 2 μM d,l-propranolol. Each experimental point was determined in triplicate. […] Incubations were terminated as described above for the α1 assays. Filters were placed into polyethylene tubes and the bound ligand was determined by gamma spectrometry (Sano et al., 1993).
(§3) All data were analyzed with the aid of microcomputer nonlinear curve fitting programs (PRISM 2.0, Graphpad Software, San Diego Calif.).
(§4) The receptors resident in each of the three membrane preparations were evaluated by standard saturation analysis following the addition of increasing concentrations of the appropriate radioligand. […] The radio ligand added for subsequent α2-displacement assays was adjusted to evaluate only the high affinity receptor. Contributions from p-iodoclonidine binding to imidazoline receptors in the α2-displacement assay were evaluated with epinephrine.
(§5) The variable, I, is the concentration of tracer added and the variable, Kd, is the equilibrium dissociation constant empirically determined for this receptor population.

α2 adrenergic receptors = assay: Alpha-2 binding, 125iodoclonidine, canine brain (frontal cortex) membranes; design: species or system canine (mongrel dogs); settings: canine cerebral cortex membranes
Method: BRAIN ALPHA-2 RECEPTORS: Membranes of mongrel dogs were harvested from the canine frontal cortex and prepared as described for lung except that the final membrane protein concentration was adjusted to 0.5 mg/ml.
as §2, §3, §4, §5

[3] = — denotes absence of significant effect

T1 sequence (P54833 whole entry): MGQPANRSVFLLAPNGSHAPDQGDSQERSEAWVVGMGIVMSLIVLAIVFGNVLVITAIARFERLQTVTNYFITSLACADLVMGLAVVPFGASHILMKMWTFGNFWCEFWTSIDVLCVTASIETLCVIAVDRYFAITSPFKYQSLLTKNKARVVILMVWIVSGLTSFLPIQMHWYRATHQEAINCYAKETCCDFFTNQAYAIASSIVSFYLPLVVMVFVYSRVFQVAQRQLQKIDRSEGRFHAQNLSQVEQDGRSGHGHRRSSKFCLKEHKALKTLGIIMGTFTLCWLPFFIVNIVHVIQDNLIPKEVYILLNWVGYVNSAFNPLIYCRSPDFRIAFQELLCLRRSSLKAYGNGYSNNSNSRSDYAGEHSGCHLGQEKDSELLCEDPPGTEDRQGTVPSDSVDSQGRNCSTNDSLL

C[C@H](N)[C@H](O)c1cccc(O)c1 (relative stereo) [R-(R*,S*) metaraminol]
Depression Time: 30-min period following injection in which the maximal depression occurred (Swiss-Webster mice [1]): 30 to 60 min | Stimulation Time: 30-min period following injection in which the maximal stimulant effect occurred (Swiss-Webster mice [1]): 90 to 120 min | locomotor depressant effects, time course (result in words) (Swiss-Webster mice [1]): dose-dependent locomotor depression within 10 to 20 minutes following injection | Depression Efficacy: ratio of the maximal depressant effect to the maximum possible effect (zero locomotor activity) (Swiss-Webster mice [1]): 0.87 | Stimulation Efficacy: ratio of the maximal stimulant effect of the test compound to the maximal effect of (+)-amphetamine (Swiss-Webster mice [1]): 0 | Depression Potency: dose resulting in ½ the maximal depressant effect (ID50) (Swiss-Webster mice [1]; [3]): 4.3 mg/kg | effect of triprolidine pretreatment on stimulant or depressant effects (Swiss-Webster mice [2]): failed to show significant modification of stimulant or depressant effects

CC(C)(C)NCC(O)COc1cccc2[nH]c(C#N)c(I)c12 (stereo not drawn) [ICYP, iodocyanopindolol]
Kd (β2 adrenergic receptors; Saturation Analysis, Run 1): 9.6 pM | Kd (β2 adrenergic receptors; Saturation Analysis, Run 2): 9.3 pM | Kd (β2 adrenergic receptors; Saturation Analysis, Summary): 9.5 pM | Kd (β2 adrenergic receptors; Scatchard Analysis, Run 1): 9.9 pM | Kd (β2 adrenergic receptors; Scatchard Analysis, Run 2): 7.8 pM | Kd (β2 adrenergic receptors; Scatchard Analysis, Summary): 8.9 pM

CNC(C)(C)Cc1ccccc1 [mephentermine]
Depression Time: 30-min period following injection in which the maximal depression occurred (Swiss-Webster mice [1]): 0 to 30 min | Stimulation Time: 30-min period following injection in which the maximal stimulant effect occurred (Swiss-Webster mice [1]): 20 to 50 min | locomotor stimulant effects, time course (result in words) (Swiss-Webster mice [1]): increased locomotion following from 5 to 25 mg/kg, with effects occurring within 20 minutes and lasting for up to 80 minutes | time of peak stimulant effects following injection (Swiss-Webster mice [1]): 20 to 50 min | Depression Efficacy: ratio of the maximal depressant effect to the maximum possible effect (zero locomotor activity) (Swiss-Webster mice [1]): 0 | Stimulation Efficacy: ratio of the maximal stimulant effect of the test compound to the maximal effect of (+)-amphetamine (Swiss-Webster mice [1]): 1.25 | Stimulation Potency: dose resulting in ½ the maximal stimulant effect (ID50) (Swiss-Webster mice [1]; [3]): 5.6 mg/kg | effect of triprolidine pretreatment on stimulant or depressant effects (Swiss-Webster mice [2]): failed to show significant modification of stimulant or depressant effects

Clc1cc(I)cc(Cl)c1NC1=NCCN1 [p-iodoclonidine]
Kd (α2 adrenergic receptors; Saturation Analysis, read-out: Kd1 (high affinity)): 0.15 nM | Kd (α2 adrenergic receptors; Saturation Analysis, read-out: Kd2 (low affinity)): 3.01 nM | Kd (α2 adrenergic receptors; Scatchard Analysis, read-out: Kd1 (high affinity)): 0.15 nM | Kd (α2 adrenergic receptors; Scatchard Analysis, read-out: Kd2 (low affinity)): 0.87 nM

Cc1ccc(/C(=C\CN2CCCC2)c2ccccn2)cc1 [triprolidine, Triprolidine HCl]
effect on horizontal distance, triprolidine alone (Swiss-Webster mice [2]; 0.25 to 25 mg/kg, 2-hour test period): failed to affect horizontal distance | effect on locomotion, triprolidine alone (Swiss-Webster mice [2]; 50 and 100 mg/kg): Dose-dependent depression of locomotion
